Experimental data from article PMC5794198, “Inhibitors of Trypanosoma cruzi Sir2 related protein 1 as potential drugs against Chagas disease” (PLoS Neglected Tropical Diseases, 2018).
“Also recorded” adds a separate entry of the source. Like-named read-outs stand apart in the source and are kept apart here.

Experiments:
C2C12 cells = assay: C2C12 host cell cytotoxicity (cell ratio) in HCS assay; type: cell-based, Mouse; settings: for Selectivity Index: CC50 cell line (C2C12)/EC50 T. cruzi; for CC50: cell ratio, 72 h, read-out: C2C12 Cytotoxicity (CC50 ± SD)
Method: (§1) For the evaluation of the activity against T. cruzi amastigotes, high-content screening (HCS) was designed. In summary, 100 μL of host C2C12 cells (ATCC) were seeded in clear bottom black 96-well plates at a density of 2.5 x 10^4 cells/mL (2.5 × 10^3 cells/well). […] The parasites were allowed to infect for a 24 hr period, after which compounds were added in a volume of 50 μL. […] After 72 hrs of compound incubation, the wells were fixed with 4% paraformaldehyde for 15 to 30 mins. The plates were then washed once with deionized water and stained with a solution of DAPI (3 μM) for 1 hour. Plates were imaged in an INCell 2000 (GE Healthcare) high-content analyser by taking 16 pictures per well at 20 X objective amplification. Images were analysed with INCell Developer software (GE Healthcare) using the segmentation of host cell nuclei and parasite kinetoplast DNA. The measurement output used was the average number of parasites per cell calculated by the ratio of host cell nuclei/parasite kinetoplast DNA.

[1] = as above; type: cell-based, Mouse; settings: mouse, cell ratio, 72 h; read-out: C2C12 Cytotoxicity (CC50 ± SD)
Method: as §1

T. cruzi amastigotes = assay: High-content screening assay on intracellular T. cruzi amastigotes; type: cell-based, Trypanosoma cruzi; settings: for EC50: Y strain in C2C12 host cells, 72 h, read-out: Anti-T. cruzi Activity Amastigotes (EC50 ± SD)
Method: For the evaluation of the activity against T. cruzi amastigotes, high-content screening (HCS) was designed. In summary, 100 μL of host C2C12 cells (ATCC) were seeded in clear bottom black 96-well plates at a density of 2.5 x 10^4 cells/mL (2.5 × 10^3 cells/well). After 24 hrs, 50 μL of Y strain tissue culture-derived trypomastigotes were used to infect the host cells at a density of 7.5 x 10^5/mL (3.75 x 10^4 parasites/well). The parasites were allowed to infect for a 24 hr period, after which compounds were added in a volume of 50 μL. […] After 72 hrs of compound incubation, the wells were fixed with 4% paraformaldehyde for 15 to 30 mins. The plates were then washed once with deionized water and stained with a solution of DAPI (3 μM) for 1 hour. Plates were imaged in an INCell 2000 (GE Healthcare) high-content analyser by taking 16 pictures per well at 20 X objective amplification. Images were analysed with INCell Developer software (GE Healthcare) using the segmentation of host cell nuclei and parasite kinetoplast DNA. The measurement output used was the average number of parasites per cell calculated by the ratio of host cell nuclei/parasite kinetoplast DNA.
In this assay, the compounds are incubated for 72 hours with cells previously infected with wild-type trypomastigotes for 24 hours. The readout was done by comparing the average number of amastigotes per cell that developed by the end of the incubation period. The quality of the assay was statistically evaluated by the calculation of the z-factor [75], that represents the reliability of the assay in distinguishing positive controls confidently from negative controls. Varying from 0 to 1, z-factor values higher than 0.5 are considered acceptable for drug screening. The z-factor obtained was 0.68, validating the use of the assay (S3B Fig).

human SIRT1 = target: T1, human SIRT1 (Homo sapiens, UniProt Q96EB6); assay: hSIRT1 deacetylase inhibition (CycLex kit); type: biochemical; settings: 10 µM, n=2, N.I. = no inhibition; for inhibition at 10 µM: read-out: hSIRT1 Inhibition at 10 µM (% ± SD)
T1 sequence (Q96EB6 1-747): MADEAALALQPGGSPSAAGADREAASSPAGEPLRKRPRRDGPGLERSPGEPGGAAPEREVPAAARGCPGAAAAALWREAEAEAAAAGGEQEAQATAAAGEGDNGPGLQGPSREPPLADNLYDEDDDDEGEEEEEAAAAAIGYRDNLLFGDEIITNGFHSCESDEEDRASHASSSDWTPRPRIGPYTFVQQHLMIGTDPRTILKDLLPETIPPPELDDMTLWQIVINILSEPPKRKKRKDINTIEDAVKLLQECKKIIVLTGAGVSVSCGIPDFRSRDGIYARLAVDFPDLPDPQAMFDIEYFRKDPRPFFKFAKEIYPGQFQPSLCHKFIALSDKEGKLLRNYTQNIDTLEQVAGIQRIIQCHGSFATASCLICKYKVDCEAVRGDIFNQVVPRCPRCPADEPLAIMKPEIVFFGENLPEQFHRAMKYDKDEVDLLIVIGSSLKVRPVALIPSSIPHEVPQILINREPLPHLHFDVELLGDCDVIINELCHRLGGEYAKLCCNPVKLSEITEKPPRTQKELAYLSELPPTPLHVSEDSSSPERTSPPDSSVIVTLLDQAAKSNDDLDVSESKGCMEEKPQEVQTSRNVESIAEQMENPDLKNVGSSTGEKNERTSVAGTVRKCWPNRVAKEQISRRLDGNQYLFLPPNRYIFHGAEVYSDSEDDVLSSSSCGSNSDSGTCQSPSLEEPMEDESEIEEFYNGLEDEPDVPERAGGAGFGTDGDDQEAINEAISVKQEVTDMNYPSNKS

TcSir2rp1 = TcSir2rp1 (Trypanosoma cruzi, UniProt Q4DVL9); assay: TcSir2rp1 NAD+-dependent deacetylase fluorimetric assay (CycLex kit); type: biochemical; settings: for Inhibition of NAD+-dependent deacetylase activity of TcSir2rp1 / inhibition at 10 µM: single dose 10 μM, 200 μM NAD+, 10 μM peptide
TcSir2rp1, sequence (Q4DVL9 entry or part of it): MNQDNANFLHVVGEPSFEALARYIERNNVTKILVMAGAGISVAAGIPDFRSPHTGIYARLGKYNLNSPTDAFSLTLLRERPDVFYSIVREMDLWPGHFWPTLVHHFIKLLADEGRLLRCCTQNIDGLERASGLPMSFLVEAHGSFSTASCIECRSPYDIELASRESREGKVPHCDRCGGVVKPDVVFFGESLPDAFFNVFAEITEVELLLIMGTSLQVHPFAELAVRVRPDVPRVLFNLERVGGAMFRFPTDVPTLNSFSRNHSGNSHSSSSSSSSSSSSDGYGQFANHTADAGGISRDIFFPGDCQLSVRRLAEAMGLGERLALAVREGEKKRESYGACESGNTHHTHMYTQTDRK
Method: The deacetylase activity was measured using the commercial SIRT1/Sir2 Deacetylase Fluorometric Assay Kit (CycLex,Japan) according to the manufacturer’s recommendations. Briefly, fluorescence emission after digestion of deacetylated substrates by a lysine specific endopeptidase was measured in a fluorometric plate reader (Synergy HT, BioTek) with excitation and emission wavelengths set at 340 and 440 nm, respectively, every 30 seconds for 1 hour. The slope of the linear part of the reaction was calculated and used as readout of enzyme activity. […]
(§2) A variety of the bisnaphthalimidopropyl (BNIPs) derivatives, as well as the newly synthetized derivatives were evaluated as potential TcSir2rp1 inhibitors. The enzymatic reactions were performed using a commercially available CycLex SIRT1/Sir2 deacetylase fluorimetric kit (CycLex Co. Ltd., Nagano, Japan) in the absence and presence of the various inhibitors, 200 μM NAD^+ and 10 μM of peptide substrate as previously described.
as §2, with “µM” for “μM”

Solubility = type: physicochemical; settings: limits the concentration tested
[2] = system: T. cruzi epimastigotes overexpressing TcSir2rp1 (OE) with the pTcINDEX; assay: microbe, parasite or virus in culture; type: cell-based; settings: Trypanosoma cruzi, read-out: EC50 against T. cruzi epimastigotes OE
Method: For the generation of transgenic cell lines, 15 μg of the constructs were digested overnight (SpeI for the pTcINDEX construct; NotI for the knockout constructs), precipitated with sodium acetate / ethanol, and introduced into 1.5 x 10^7 epimastigote cells in the logarithmic phase of growth via transfection using an AMAXA Nucleofector II device (program V-33) with the Human T-cell nucleofector kit (Lonza). Parasites were suspended in fresh growth medium and incubated for 24-hrs to allow for the expression of drug selectable markers, prior to the addition of appropriate antibiotic (Blasticidin S (Thermo Fisher Scientific; 10 μg/mL); Hygromycin B (Formedium; 100 μg/mL); and Puromycin (Calbiochem; 5 μg/mL). Cells were then incubated for a further four- to six-weeks to allow for the selection of transgenic parasites and then genetically verified by PCR using ORF and drug selection primers.
The TcSir2rp1 open reading frame (TriTryp accession number TcCLB.508207.150) was amplified from CL-Brener genomic DNA using KOD polymerase (Novagen). The resulting PCR product encoding the full-length ORF was cloned directly into the T. cruzi expression vector, pTcINDEX [49], using NotI and BamHI restriction sites.
T. cruzi epimastigotes were seeded at 1.25 x 10^6 cells/mL in a 96-well plate in the presence of varying concentrations of test compounds. Following a 64-hour incubation, 15 μL of a resazurin solution (Sigma-Aldrich; 1.1 mg/mL in PBS). Following an additional 6-hr incubation, cell viability was determined by measuring the fluorescence of each culture with a BioTek FLX800 Fluorescence Microplate Reader (excitation and emission wavelengths of 540/535 nm and 590/610 nm, respectively) and associated Gen5 Reader Control 2.0 software. EC50 values were determined by nonlinear regression to a sigmoidal dose-response curve using GraFit software (Version 5.0, Erithacus Software). Each assay was performed in at least triplicate in parallel to the known trypanocidal agent nifurtimox.

Row | Compound | Selectivity Index (C2C12 cells) | CC50 at 72 h [1] | EC50 (T. cruzi amastigotes; Trypanosoma cruzi, C2C12, 72 h) | hSIRT1 Inhibition at 10 µM (% ± SD) (human SIRT1) | inhibition at 10 µM (human SIRT1) | also measured
1 | O=C1c2cccc3cccc(c23)C(=O)N1CCCNCCCCNCCCN1C(=O)c2cccc3cccc(c23)C1=O [Compound 1] | 1.7 | 2910 ± 940 nM | 1710 ± 230 nM |  |  | 
2 | O=C1c2cccc3cccc(c23)C(=O)N1CCCNC1CCC(NCCCN2C(=O)c3cccc4cccc(c34)C2=O)CC1 (centres unmarked) [Compound 1a] | 1.4 |  |  | 1 ± 1% |  | CC50 (C2C12 cells): 8.74 ± 1.14 µM; EC50 (T. cruzi amastigotes): 6090 ± 140 nM
3 | O=C1c2cccc3cccc(c23)C(=O)N1CCCNC1CCC(NCCCN2C(=O)c3cccc4cccc(c34)C2=O)CC1 (centres unmarked) [Compound 1b] | > 3.2 |  |  | 3 ± 4% |  | CC50 (C2C12 cells): > 2.5 µM; EC50 (T. cruzi amastigotes): 780 ± 120 nM
4 | O=C1c2cccc3cccc(c23)C(=O)N1CCCNc1ccc(NCCCN2C(=O)c3cccc4cccc(c34)C2=O)cc1 [Compound 1c] |  |  |  | N.I. |  | 
5 | O=C1c2cccc3cccc(c23)C(=O)N1CCCNCCCCCCCCNCCCN1C(=O)c2cccc3cccc(c23)C1=O [Compound 5] |  |  |  |  |  | Inhibition of NAD+-dependent deacetylase activity of TcSir2rp1 (TcSir2rp1): not active; also recorded: very little if any activity; Activity against amastigotes (primary screening) (T. cruzi amastigotes; single dose screening): very little if any activity
6 | O=C1c2cccc3cccc(c23)C(=O)N1CCCN1CCC(CCCC2CCN(CCCN3C(=O)c4cccc5cccc(c45)C3=O)CC2)CC1 [Compound 6a] | 2.0 | 2880 ± 120 nM | 1450 ± 300 nM |  | 3 ± 4% | 
7 | O=C1c2cccc3cccc(c23)C(=O)N1CCCNC1CCC(CC2CCC(NCCCN3C(=O)c4cccc5cccc(c45)C3=O)CC2)CC1 (centres unmarked) [Compound 6b] |  |  |  |  | 44 ± 8% | inhibition at 10 µM (TcSir2rp1): 8 ± 5%
8 | O=C1c2cccc3cccc(c23)C(=O)N1CCCNc1ccc(Cc2ccc(NCCCN3C(=O)c4cccc5cccc(c45)C3=O)cc2)cc1 [Compound 6c] |  |  |  |  | 8 ± 1% | Solubility in assay (qualitative) (Solubility): poor solubility
9 | O=C1c2cccc3cccc(c23)C(=O)N1CCCNCCCN1CCN(CCCNCCCN2C(=O)c3cccc4cccc(c34)C2=O)CC1 [Compound 7a] | 1.4 | 19300 ± 5640 nM | 13600 ± 2900 nM | N.I. |  | 
10 | O=C1c2cccc3cccc(c23)C(=O)N1CCCNCCCCCCCCCCCCNCCCN1C(=O)c2cccc3cccc(c23)C1=O [Compound 8] | 1.3 | 1910 ± 60 nM | 1430 ± 100 nM |  |  | inhibition at 50 µM (TcSir2rp1): 31 ± 9%; Inhibition of NAD+-dependent deacetylase activity of TcSir2rp1 (TcSir2rp1): statistically significant inhibition
11 | O=C1c2cccc3cccc(c23)C(=O)N1CCCNCCOCCOCCNCCCN1C(=O)c2cccc3cccc(c23)C1=O [Compound 9a] | 2.1 | 7370 ± 650 nM | 3430 ± 570 nM |  | 3 ± 4% | inhibition at 50 µM (TcSir2rp1): 29 ± 4%; Inhibition of NAD+-dependent deacetylase activity of TcSir2rp1 (TcSir2rp1): statistically significant inhibition; inhibition at 10 µM (TcSir2rp1): 28 ± 13%
12 | O=C1c2cccc3cccc(c23)C(=O)N1CCCNCCCNCCCCNCCCNCCCN1C(=O)c2cccc3cccc(c23)C1=O [Compound 10] |  |  |  |  |  | Solubility in assay (qualitative) (Solubility): poor solubility
13 | C[N+]1(CCCN2C(=O)c3cccc4cccc(c34)C2=O)CCN(CCCN2C(=O)c3cccc4cccc(c34)C2=O)CC1 [Compound 12] | > 1.7 | > 50000 nM | 28700 ± 4090 nM | N.I. |  | 
14 | O=C1c2cccc3c(Cl)ccc(c23)C(=O)N1CCCN1CCN(CCCN2C(=O)c3cccc4c(Cl)ccc(c34)C2=O)CC1 [Compound 13] |  | > 2500 nM | 590 ± 230 nM |  | 15 ± 4% | inhibition at 20 µM (TcSir2rp1): 48 ± 6%; Inhibition of T. cruzi enzyme relative to hSIRT1, fold higher (TcSir2rp1; both at 10 μM): at least 3 fold; Inhibition of NAD+-dependent deacetylase activity of TcSir2rp1 (TcSir2rp1): statistically significant inhibition; inhibition at 10 µM (TcSir2rp1): 50 ± 8%; Solubility in assay (qualitative) (Solubility): low solubility
15 | CC1CS(=O)(=O)CCN1/N=C/c1ccc([N+](=O)[O-])o1 (centres unmarked) [Nifurtimox, nifurtimox, reference compound] |  |  |  |  |  | EC50 [2]: 2240 ± 140 nM
16 | CC(/C=C/C(=O)NO)=C\[C@@H](C)C(=O)c1ccc(N(C)C)cc1 [trichostatin A, reference compound] |  |  |  |  |  | TcSir2rp1 deacetylase activity still displayed (TcSir2rp1; inhibitor at 1 μM): 77 ± 8%
